From US10137115B2, “Therapeutic inhibitor for EBV-associated tumor with tailor responsive optical imaging” (priority 2016, dated 2018)
“Also recorded” adds a separate entry of the source. Non-standard residues stand in square brackets, D forms with d. Residues, ends and D or L forms follow the SMILES beside them. No end group written: not given here. *: point of attachment. X1 = CCN(CC)c1ccc(/C=C/c2cc[n+](CC(=O)*)cc2)cc1; Ahx = NCCCCCC(=O)O

Experiments:
[1] = Emission quantum yield in water, comparative method using rhodamine 6G; assay type: physicochemical; conditions: λex=480 nm, without WT-EBNA1
Method: Quantum yields of L2Pn are evaluated by the following equation 1: […]
Where the subscripts r and s denote reference and sample respectively, ϕ is the quantum yield, G is the slope from the plot integrated emission intensity vs absorbance, and η is the refractive index of the solvent. The correction curve is obtained by comparing the experimentally recorded spectrum of the standard rhodamine 6G with the published data.

[2] = test system: EBV-positive (C666-1 and NPC43) and EBV-negative (CNE2 and HeLa) cell lines; test: In vitro confocal imaging and co-staining; assay type: cell-based, human; conditions: 10 μM, 6 h
Method: HeLa is EBV-negative human cervical carcinoma cells, CNE2 is EBV-negative nasopharyngeal carcinoma cells, C666-1 is EBV-positive nasopharyngeal carcinoma cells, and NPC 43 is the newly derived EBV-positive nasopharyngeal carcinoma cells.
The cells are incubated with 6 hours before monitoring imaging.

[3] = molecular target: T1, WT-EBNA1 (Epstein-Barr virus, UniProt P03211); test: Emission quantum yield in the presence of WT-EBNA1; conditions: in water, saturated WT-EBNA1, λex=480 nm
T1 sequence (P03211 379-641): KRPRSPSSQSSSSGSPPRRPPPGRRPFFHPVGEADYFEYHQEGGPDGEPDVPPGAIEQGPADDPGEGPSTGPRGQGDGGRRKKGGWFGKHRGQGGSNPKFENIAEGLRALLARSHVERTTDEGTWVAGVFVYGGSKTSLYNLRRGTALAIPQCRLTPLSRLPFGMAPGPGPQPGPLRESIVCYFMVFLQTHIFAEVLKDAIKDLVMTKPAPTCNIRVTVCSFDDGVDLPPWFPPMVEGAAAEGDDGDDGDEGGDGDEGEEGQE

[4] = molecular target: T1, WT-EBNA1; test: biochemical; assay type: binding; set-up: Wild type EBNA1 protein (379-641 a.a.) fusing with glutathione S-transferase is expressed in Escherichia coli; GST (glutathione S-transferase); made in house; host or cells: Escherichia coli (BL21); conditions: for emission intensity increase on addition of WT-EBNA1: 4 μM WT-EBNA1, PBS buffer
Method: Bind constant via luminescence titration: Luminescence titration analysis is conducted with gradually addition of WT EBNA1 to evaluate the binding constants between the three peptide conjugates and WT EBNA1. […] The binding constants for Ka are obtained from the double logarithm regression curve: lg[(I−I0)/I0]=lg Ka+n lg[G] equation 2
Where I and I0 are current and initial fluorescence, respectively, Ka is the binding constant, n is the number of binding sites per WT EBNA1, and [G] is total concentration of WT EBNA1.
Protein samples preparation. Five protein samples are used.

With `CCN(CC)c1ccc(/C=C/c2cc[n+](CC(=O)N[C@@H](CS)C(=O)NCCCCCC(=O)N[C@@H](CCCNC(=N)N)C(=O)N[C@H](CCCNC(=N)N)C(=O)N[C@@H](CCCNC(=N)N)C(=O)N[C@@H](CCCCN)C(=O)NCC(=O)NCC(=O)N[C@@H](Cc3ccc(O)cc3)C(=O)N[C@@H](Cc3ccccc3)C(=O)N[C@@H](CCSC)C(=O)N[C@H](C(=O)N[C@@H](Cc3ccccc3)C(N)=O)C(C)C)cc2)cc1` [L2P3] (X1-C[Ahx]R[dR]RKGGYFMVF-NH2) the emission quantum yield [1] was 4.3%, the “subcellular localization in EBV-positive cells” value [2] was “can goes into C666-1 cell nucleus; also recorded: nuclear localization” and the “emission quantum yield + WT EBNA1” value [3] was 13.0%. For the same compound, the Kd [4] was 3.16 µM, the “selectivity towards WT-EBNA1 (emission enhancement vs other proteins, ions)” value ([4]; 2 μM in PBS buffer, vs BSA, mutant EBNA1, ZnCl2, NaHCO3, CuCl2, citrates) was “selective towards WT-EBNA1” and the “emission intensity increase on addition of WT-EBNA1” value [4] was 4.7 fold.
For “L2P2: peptide conjugate of L2 (4-(4-(Diethylamino)styryl)-N-carboxymethylpyridinium chloride) and peptide P2 YFMVF (also: conjugated to L2, site not given here)”, the emission quantum yield [1] was 4.4%, the “subcellular localization in EBV-positive cells” value [2] was “cytoplasm location only; also recorded: only found in the cytoplasm” and the “emission quantum yield + WT EBNA1” value [3] was 3.8%. The “emission intensity increase on addition of WT-EBNA1” value [4] was “no intensity change; also recorded: did not show any enhancements”.
